Test results reported in patent US20020025512A1, “FLUORESCENCE POLARIZATION- BASED DIAGNOSTIC ASSAY FOR EQUINE INFECTIOUS ANEMIA VIRUS” (priority 1998, published 2002).
No end group written: not given here. *: point of attachment. 5FAM = O=C1OC2(c3ccc(O)cc3Oc3cc(O)ccc32)c2ccc(C(=O)*)cc21

Key:
[1] = tested on: anti-EIAV antibodies in horse sera; experiment: Anti-fluorescein capture ELISA; assay type: binding; details: for ELISA reactivity with FP-nonreactive sera: sera 1:50, FP-nonreactors from Texas; for ELISA reactivity: Pony 95 and Lady sera; for reactivity in the anti-fluorescein ELISA: general statement of Example 3
Experimental: Anti-Fluorescein Capture ELISA. In order to measure antibody binding to test peptides without regard to their suitability for FP, an anti-fluorescein capture ELISA was used. To each well of an Immulon 2 HB 96-well plate (Dynex, Chantilly, Va.) was added 50 μL rabbit anti-fluorescein antibody (Molecular Probes), 3.5 μg/ml in 50 mM sodium bicarbonate, pH 9.6; the plates were sealed and incubated overnight. The wells were blocked with Blotto (5% nonfat dry milk, 5% normal bovine serum, 0.025% Tween 20 in PBS (PBST). The plates were then incubated with test horse sera, diluted 1:100 in Blotto, for 1 h at RT, washed as above, then incubated with anti-horse IgG(Fc)-HRP (United States Biochemical), diluted 1:10^5 in Blotto, for 1 h at RT and washed. The substrate, TM Blue Soluble reagent (200 μL/well; Intergen, Milford, Mass.) was added and incubated for 20 minutes with shaking, and the reaction stopped with the addition of 50 μL/well 1.0 N H2SO4 for 5 minutes with shaking. Absorbance at 450 nm was measured on a Dynex MR5000 microplate reader. Because each peptide caused a slightly different background absorbance, control wells containing no horse serum were included for each peptide tested.
Some of the sera from Missouri (4/10) could not be tested due to interference from a high level of hemolysis, resulting in low lamp feedback values. […] In order to confirm the serological status of FP-unreactive sera, they were tested in a western blot (data not shown) as well as in the antifluorescein-capture ELISA using the seven original peptides derived from the three major antigens mentioned above (FIG. 5). Sera (1:50 dilution) were tested for reactivity to four EIAV-derived, fluorescein-labeled peptides in an ELISA format as described in the methods. NHS, normal (uninfected) horse serum; Tx43 through Txll7, FP-nonreactive, Tx47 through pony 95, FP-reactive sera. Black bars, peptide R51F; hatched bars, R32; gray bars, pepl2; white bars, Sam50.

[2] = Behaviour of the R51 probe in solution (cyclization, dilution); assay type: physicochemical
Experimental: Because R51 contains two Cys residues that may form a loop in the native protein, the differences in reactivity were assessed between linear or cyclized peptide (cyclic by virtue of an intramolecular disulfide bond).

[3] = tested on: serum antibodies to equine infectious anemia virus; experiment: Fluorescence polarization (FP) assay of fluorescein-labeled peptides with diluted horse serum; assay type: binding; details: for FP interaction with EIAV-positive sera: EIAV-positive sera incl. R51 FP-nonreactive samples; for FP signal of R51 with positive sera: approx. 2 nM peptide, 1:100 serum, 50 mM sodium phosphate pH 6.8, 20 min, 5CF vs 6CF label; for FP reactivity with experimentally infected serum: Pony 95 serum
Experimental: Several different buffer compositions and detergents were therefore tested for compatibility with horse serum. When horse serum was diluted 1:50 or 1:100 into 20-50 mM sodium phosphate without NaCl, this problem was virtually eliminated. […] Under the low-salt conditions, the polarization of peptide R51-5CF increased from 50 mP to over 200 mP with a 1:100 dilution of a strong positive EIAV antiserum from an experimental infection (Pony 95). Thus it was determined that the optimal buffer composition for the FP assay was 50 mM sodium phosphate, pH 6.8-7.0.
(§1) Fluorescence Polarization (FP) Measurements. The fluorescein-labeled peptides were evaluated for their suitability as probes for FP using an FPM-1 Fluorescence Polarization Analyzer (Jolley Consulting and Research, Grayslake, Ill.) batch mode with the following settings: PMT gain 80, heater off, single read. Serum was diluted 1:100 or 1:50 into 2 mL of buffer in 12×75 mm borosilicate glass tubes (VWR). After reading the blank, fluorescently labeled peptide was added to a final concentration of 1-2 nM (100K-200K total intensity) and incubated for at least 15 minutes. The FP of the sample was measured and expressed as millipolarization units (mP). Some of the sera were very dark, presumably due to hemolysis. If such a serum sample had low lamp feedback (<0.63), a two-fold further dilution was tested. Polarization data was output to a computer running the FPM-1 data collection software, then converted to an ASCII text file and imported into the Quattro Pro spreadsheet program (Corel, Ottawa, Ontario) for data analysis and graphing.
Because different fluorescein linkages can result in differences in sensitivity in the FP assay, R51 peptide was labeled with 6-carboxyfluorescein so the difference between the two labels could be ascertained. […] Peptides (approx. 2 nM) were incubated with a 1:100 dilution of serum in 50 mM sodium phosphate, pH 6.8, for 20 minutes. The results are shown in FIG. 2, in order of decreasing peptide length. In FIG. 2, black bars show the results for experimentally-infected (pony 95), hatched bars for field infected ([…]), gray bars for uninfected (Petite), and white bars for no serum added. […] As the R51-6CF probe was the most sensitive to the positive sera tested, 6-carboxyfluorescein is the preferred fluorophore. However, other fluorophores, such as rhodamine, BODIPY™ M, Texas Red™ and Lucifer yellow, could also be used. For a detailed listing of a variety of commercially available fluorophores, see Handbook of Fluorescent Probes and Research Chemicals, ed. Karen Larison, by Richard P. Haughland, Ph.D., 5th ed., 1992, published by Molecular Probes, Inc.

[4] = tested on: anti-EIAV IgG; experiment: Fluorescence polarization of probe peptides with purified IgG from field-infected horse (Lady); assay type: binding; details: for change in FP with purified antibodies from field-infected animal: Lady IgG
Experimental: Due to problems encountered with testing horse serum, the initial evaluation made use of purified IgG from a reference long-term, field-infected horse (Lady). Purified IgG from field infected horse serum (100 μg/ml) was incubated with the candidate probe peptides (2 nM) in PBS for 20 min. The results are shown in FIG. 1, wherein black bars indicate probe added to IgG and gray bars indicate probe in buffer alone. All peptides were the 5-carboxyfluorescein derivatives. […] The other peptides in the panel had only slight changes in polarization in the presence of Lady IgG.
as §1

With “IGCIERTHVFCHTG (Equine infectious anemia virus) [R51]” the “ELISA reactivity with FP-nonreactive sera” value [1] was “no measurable antibody”, the precipitation of probe ([2]; conditions that allow cyclization) was “prone to precipitation” and the stability of peptide ([2]; upon dilution) was “stable upon dilution”. The “sensitivity of cyclized vs linear peptide” value ([3]; cyclic by intramolecular disulfide bond, field isolates) was “more sensitive to field isolates than the linear form”.

With “HPLPNAPLVAPPQGPIPMT (Equine infectious anemia virus) [Sam50H]” the “FP interaction with EIAV-positive sera” value [3] was “none of these analogs displayed a measurable interaction”.

With “R51-6CF: R51 peptide (SEQ ID NO 1) labeled with 6-carboxyfluorescein (IGCIERTHVFCHTG; cysteine pairing not given here; also: 6-carboxyfluorescein label, position not given here)” the “polarization values of negative serum samples” value ([3]; 110 AGID-negative sera, 1:100 dilution) was 73.6±3.0 mP, the “FP signal of R51 with positive sera” value [3] was over 300 mP and the “average mP value with field-infected sera” value ([3]; measurable sera of 153 field-infected animals, 1:100 dilution, ~2 nM peptide) was 150±55 mP.

In the case of “KERQQVEETFNLI (Equine infectious anemia virus) [R32]”, the ELISA reactivity [1] is reported as “reacted very strongly”, the “reactivity in the anti-fluorescein ELISA” value [1] is reported as “strong and broad reactivity” and the “ELISA reactivity with FP-nonreactive sera” value [1] is reported as “no measurable antibody”. The “change in FP with purified antibodies from field-infected animal” value [4] was “did not exhibit an increase in FP” and the “FP reactivity with experimentally infected serum” value [3] was “some reactivity”.

For “QQVEETFNLI (Equine infectious anemia virus) [R32QQ]”, the “maximum FP” value ([3]; 1:100 dilution of pony 95, R32 length series, fluorescein-6-isothiocyanate label) was over 200 mP and the “FP reactivity with experimentally infected serum” value [3] was “most sensitive peptide”.

In the case of “R51-5CF: R51 peptide labeled at the N-terminus with 5-carboxyfluorescein (5FAM-IGCIERTHVFCHTG; cysteine pairing not given here)”, the free-peptide polarization level ([4]; probe 2 nM in PBS buffer alone, 5-carboxyfluorescein derivative) is reported as “about 60 mP”, the “FP in the presence of Lady IgG” value ([4]; probe 2 nM, 60-100 μg/ml Lady IgG in PBS, 20 min) is reported as “around 140 MP” and the “FP signal of R51 with positive sera” value [3] is reported as 220 mP. For the same substance, the “FP reactivity with field-infected horse serum” value ([3]; field infected horses (Lady)) was “sensitive to serum from field infected horses”, the “polarization with strong positive EIAV antiserum” value ([3]; low-salt conditions, 1:100 dilution, experimental infection (Pony 95)) was “over 200 mP” and the “polarization of peptide before serum” value ([3]; low-salt conditions, starting value) was 50 mP.

In the case of “ADDWDNRHPLPNAPLVAPPQGPIPMT (Equine infectious anemia virus) [Sam50]”, the “FP interaction with EIAV-positive sera” value [3] is reported as “insensitive to EIAV-positive sera”.

For “APLVAPPQGPIPMT (Equine infectious anemia virus) [Sam50A]”, the “FP interaction with EIAV-positive sera” value [3] was “none of these analogs displayed a measurable interaction”.

In the case of “LETWKLVKTSGVTPLPISSEANTGL (Equine infectious anemia virus) [Peptide 12]”, the ELISA reactivity [1] is reported as “reacted very strongly”, the “reactivity in the anti-fluorescein ELISA” value [1] is reported as “strong and broad reactivity” and the “ELISA reactivity with FP-nonreactive sera” value [1] is reported as “bind only weakly”. The “change in FP with purified antibodies from field-infected animal” value [4] was “did not exhibit an increase in FP” and the “FP reactivity with experimentally infected serum” value [3] was “some reactivity”.
